Data: PubChem BioAssay (NCI)
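Five concentrations, 48 hours, 96-well plates. GI50 marks 50% less growth. TGI is the concentration that stops growth completely.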

How the values were obtained:
Assay in all cases: DTP human tumour cell line panel, 48 h
NCI-H23 lung = test system: NCI-H23 lung
NCI-H460 lung = test system: NCI-H460 lung
NCI-H522 lung = test system: NCI-H522 lung
NCI/ADR-RES ovarian = test system: NCI/ADR-RES ovarian
OVCAR-3 ovarian = test system: OVCAR-3 ovarian
OVCAR-4 ovarian = test system: OVCAR-4 ovarian
OVCAR-5 ovarian = test system: OVCAR-5 ovarian
OVCAR-8 ovarian = test system: OVCAR-8 ovarian
PC-3 prostate = test system: PC-3 prostate
RPMI-8226 leukemia = test system: RPMI-8226 leukemia
RXF 393 renal = test system: RXF 393 renal
SF-268 CNS = test system: SF-268 CNS
SF-295 CNS = test system: SF-295 CNS
SF-539 CNS = test system: SF-539 CNS
SK-MEL-2 melanoma = test system: SK-MEL-2 melanoma
SK-MEL-28 melanoma = test system: SK-MEL-28 melanoma
SK-MEL-5 melanoma = test system: SK-MEL-5 melanoma
SK-OV-3 ovarian = test system: SK-OV-3 ovarian
SN12C renal = test system: SN12C renal
SNB-19 CNS = test system: SNB-19 CNS
SNB-75 CNS = test system: SNB-75 CNS
SR leukemia = test system: SR leukemia
SW-620 colon = test system: SW-620 colon
T-47D breast = test system: T-47D breast
TK-10 renal = test system: TK-10 renal
U251 CNS = test system: U251 CNS
UACC-257 melanoma = test system: UACC-257 melanoma
UACC-62 melanoma = test system: UACC-62 melanoma
UO-31 renal = test system: UO-31 renal

With `CCCCCCCCCCCCCCCCCC(=O)[O][Sn]([CH2]CCC)([CH2]CCC)[CH2]CCC` the TGI (NCI-H23 lung) was 287 nM, the GI50 (NCI-H460 lung) was 109 nM and the TGI (NCI-H460 lung) was 251 nM. For the same compound, the GI50 (NCI-H522 lung) was 140 nM, the TGI (NCI-H522 lung) was 318 nM and the GI50 (NCI/ADR-RES ovarian) was 177 nM. It also gave a TGI (NCI/ADR-RES ovarian) of 438 nM, a GI50 (OVCAR-3 ovarian) of 126 nM and a TGI (OVCAR-3 ovarian) of 254 nM. It also gave a GI50 (OVCAR-4 ovarian) of 108 nM, a TGI (OVCAR-4 ovarian) of 245 nM and a GI50 (OVCAR-5 ovarian) of 137 nM. For the same compound, the TGI (OVCAR-5 ovarian) was 340 nM, the GI50 (OVCAR-8 ovarian) was 197 nM and the TGI (OVCAR-8 ovarian) was 451 nM. The GI50 (PC-3 prostate) was 180 nM, the TGI (PC-3 prostate) was 463 nM and the GI50 (RPMI-8226 leukemia) was 139 nM. It also gave a TGI (RPMI-8226 leukemia) of 602 nM, a GI50 (RXF 393 renal) of 100 nM and a TGI (RXF 393 renal) of 253 nM. The GI50 (SF-268 CNS) was 141 nM, the TGI (SF-268 CNS) was 337 nM and the GI50 (SF-295 CNS) was 162 nM. The TGI (SF-295 CNS) was 435 nM, the GI50 (SF-539 CNS) was 181 nM and the TGI (SF-539 CNS) was 377 nM. For the same compound, the GI50 (SK-MEL-2 melanoma) was 171 nM, the TGI (SK-MEL-2 melanoma) was 369 nM and the GI50 (SK-MEL-28 melanoma) was 159 nM. It also gave a TGI (SK-MEL-28 melanoma) of 310 nM, a GI50 (SK-MEL-5 melanoma) of 141 nM and a TGI (SK-MEL-5 melanoma) of 272 nM. It also gave a GI50 (SK-OV-3 ovarian) of 143 nM, a TGI (SK-OV-3 ovarian) of 288 nM and a GI50 (SN12C renal) of 152 nM. The TGI (SN12C renal) was 403 nM, the GI50 (SNB-19 CNS) was 167 nM and the TGI (SNB-19 CNS) was 338 nM. It also gave a GI50 (SNB-75 CNS) of 124 nM, a TGI (SNB-75 CNS) of 269 nM and a GI50 (SR leukemia) of 73.8 nM. For the same compound, the TGI (SR leukemia) was 388 nM, the GI50 (SW-620 colon) was 137 nM and the TGI (SW-620 colon) was 289 nM. For the same compound, the GI50 (T-47D breast) was 124 nM, the TGI (T-47D breast) was 293 nM and the GI50 (TK-10 renal) was 164 nM. The TGI (TK-10 renal) was 311 nM, the GI50 (U251 CNS) was 153 nM and the TGI (U251 CNS) was 319 nM. The GI50 (UACC-257 melanoma) was 144 nM, the TGI (UACC-257 melanoma) was 293 nM and the GI50 (UACC-62 melanoma) was 176 nM. For the same compound, the TGI (UACC-62 melanoma) was 450 nM, the GI50 (UO-31 renal) was 161 nM and the TGI (UO-31 renal) was 340 nM.
